These results are taken from US20030049204A1, “Individualization of therapy with gastroesophageal reflux disease agents” (McGill University, priority 2001, published 2003).

Like-named read-outs stand apart in the source and are kept apart here. Marks after values point to notes of the source that are not given here.

One data set relates to AAMU-Ab. The data set is described as follows: Competitive antigen ELISA, cross-reactivity of AAMU-Ab. The format is binding, rabbit. Particulars: 0 = absence of inhibition or inhibition no higher than 40% at highest concentration tested (5 × 10^−3 M). As for the experimental part:
(§1) Four mature females New Zealand white rabbits (Charles River Canada, St-Constant, Que., Canada) are used for antibody production. The protocol employed in this study was approved by the McGill University Animal Care Committee in accordance with the guidelines from the Canadian Council on Animal Care. Antibodies of the present invention may be monoclonal or polyclonal antibodies.
(§2) A 0.5 mL aliquot of the emulsion ([…] of antigen) is injected per rabbit intramuscularly or subcutaneously. Rabbits are subsequently boosted at intervals of three weeks with […] of antigen emulsified in incomplete Freund's adjuvant. […] Antisera are stored at 4° C. in the presence of 0.01% sodium azide.
(§3) Buffers and water without additives are filtered through millipore filters and kept for 1 week. BSA, antibodies, Tween™ 20 and horse radish peroxidase conjugates are added to these buffers and water just prior to use. Urine samples are usually collected 4 hours after drinking a cup of coffee (instant or brewed with approximately 100 mg of caffeine per cup) and stored at −80° C. The urine samples are diluted 10 times with sodium phosphate buffer (620 mosm, pH 7.50) and are subsequently diluted with water to give concentrations of AAMU and 1X no higher than 3×10^−6 M in the ELISA. All the pipettings are done with an eight-channel pipette, except those of the antibody and sample solutions. Starting with the last well, 100 μL of a carbonate buffer (100 mM, pH 9.6) containing 2.5 μg mL-^1 antibodies are added to each well. After 90 min. at room temperature, the wells are washed three times with 100 mL of TPB: isotonic sodium phosphate buffer (310 mosm, pH 7.50) containing 0.05% Tween™ 20.
(§4) After the initial wash, unoccupied sites are blocked by incubation for 90 min. at room temperature with 100 μL TBP containing 3% BSA. The wells are washed four times with 100 μL TPB. […] The microplate is gently shaken with an orbital shaker at room temperature for 3-4 hours. The wells are washed three times with 100 μL TPB containing 1% BSA and three times with water containing 0.05% Tween™ 20. To the washed plate is added 150 μL of a substrate buffer composed of citric acid (25 mM) and sodium phosphate dibasic buffer (50 mM, pH 5.0) containing 0.06% hydrogen peroxide and 0.04% o-phenylenediamine hydrochloride.
as §3, with “were” for “are”, “They were” for “The urine samples are”, “mL^−1” for “mL-^1”, “was pipetted.” for “are added to each well.”, “μL” for “mL”
(§5) After the initial wash, unoccupied sites were blocked by incubation for 90 min. at room temperature with 100 μL TBP containing 3% BSA. The wells were washed four times with 100 μL TPB. […] The microplate was gently shaken with an orbital shaker at room temperature for 3-4 hours. The wells were washed three times with 100 μL with TPB containing 1% BSA and three times with water containing 0.05% Tween™ 20. To the washed plate was added 150 μL of a substrate buffer composed of citric acid (25 mM) and sodium phosphate dibasic buffer (50 mM, pH 5.0) containing 0.06% hydrogen peroxide and 0.04% o-phenylenediamine hydrochloride.

The test system of a further data set is 1X-Ab. As to the kind of experiment: Competitive antigen ELISA, cross-reactivity of 1X-Ab. The format is binding, rabbit. Particulars: 0 = absence of inhibition or inhibition no higher than 40% at highest concentration tested (5 × 10^−3 M). As for the experimental part:
as §1, §2, §3, §4
as §3, with “were” for “are”, “They were” for “The urine samples are”, “mL^−1” for “mL-^1”, “was pipetted.” for “are added to each well.”, “μL” for “mL”
as §5

The conditions of data set [1]: cited from earlier work.
The subject of data set [2] is plasma proteins, mainly albumin. Conditions: cited from earlier work.
For data set [3] the following is noted: especially less severe degrees of esophagitis; cited from earlier work.
Data set [4] has as its target serotonin-4 (5-HT4) receptor (Homo sapiens, UniProt Q13639). Conditions: in vitro; cited from earlier work.
Data set [5] concerns the target T1, rapid component of the delayed rectifying K^+ current (lkr) (Oryctolagus cuniculus, UniProt Q8WNY2).
T1 construct: in vitro isolated rabbit Purkinje fibers and ventricular papillary muscle and isolated rabbit ventricular myocyte models; from tissue; host or cells: rabbit Purkinje fibers, ventricular papillary muscle and ventricular myocytes; also anesthetized guinea pig and rabbit in vivo
T1 sequence (Q8WNY2 1-1161): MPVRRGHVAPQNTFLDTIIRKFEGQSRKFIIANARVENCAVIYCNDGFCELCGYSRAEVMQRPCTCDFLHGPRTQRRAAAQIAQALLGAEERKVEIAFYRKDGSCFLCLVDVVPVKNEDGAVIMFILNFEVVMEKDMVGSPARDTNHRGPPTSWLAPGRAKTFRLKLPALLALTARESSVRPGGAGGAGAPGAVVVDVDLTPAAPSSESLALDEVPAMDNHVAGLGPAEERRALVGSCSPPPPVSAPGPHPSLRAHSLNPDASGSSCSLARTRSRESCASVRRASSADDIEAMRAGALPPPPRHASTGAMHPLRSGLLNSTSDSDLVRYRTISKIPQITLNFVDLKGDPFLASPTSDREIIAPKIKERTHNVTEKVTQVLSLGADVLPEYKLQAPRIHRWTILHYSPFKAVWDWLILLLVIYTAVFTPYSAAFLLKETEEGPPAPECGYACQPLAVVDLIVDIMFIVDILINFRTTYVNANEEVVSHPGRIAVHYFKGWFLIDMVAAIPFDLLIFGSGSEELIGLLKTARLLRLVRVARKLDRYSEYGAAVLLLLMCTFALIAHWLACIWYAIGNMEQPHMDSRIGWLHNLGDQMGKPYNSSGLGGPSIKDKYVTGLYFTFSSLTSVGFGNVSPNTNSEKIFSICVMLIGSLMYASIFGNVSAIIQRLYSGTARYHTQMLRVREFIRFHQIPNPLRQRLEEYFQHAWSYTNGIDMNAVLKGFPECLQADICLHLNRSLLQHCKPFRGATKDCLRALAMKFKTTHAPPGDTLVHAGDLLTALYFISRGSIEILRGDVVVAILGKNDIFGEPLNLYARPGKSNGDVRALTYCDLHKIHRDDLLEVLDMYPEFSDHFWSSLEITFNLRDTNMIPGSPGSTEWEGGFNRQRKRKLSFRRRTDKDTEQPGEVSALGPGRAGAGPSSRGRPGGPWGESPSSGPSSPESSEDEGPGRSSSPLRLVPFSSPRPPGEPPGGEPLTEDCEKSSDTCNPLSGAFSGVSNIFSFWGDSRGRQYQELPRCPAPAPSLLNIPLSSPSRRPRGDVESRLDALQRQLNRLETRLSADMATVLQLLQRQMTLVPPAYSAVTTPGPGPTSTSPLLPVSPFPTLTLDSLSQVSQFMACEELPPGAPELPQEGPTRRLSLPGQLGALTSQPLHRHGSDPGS
Particulars: in vivo anesthetized guinea pig and rabbit; in vitro isolated rabbit preparations; cited from earlier work.

For data set [6] the following is noted: in vivo; cited from earlier work.
The conditions of data set [7]: cited from earlier work. The source holds these as a separate data set.

serotonin-4 (5-HT4) receptor, sequence (Q13639 whole entry, species assumed): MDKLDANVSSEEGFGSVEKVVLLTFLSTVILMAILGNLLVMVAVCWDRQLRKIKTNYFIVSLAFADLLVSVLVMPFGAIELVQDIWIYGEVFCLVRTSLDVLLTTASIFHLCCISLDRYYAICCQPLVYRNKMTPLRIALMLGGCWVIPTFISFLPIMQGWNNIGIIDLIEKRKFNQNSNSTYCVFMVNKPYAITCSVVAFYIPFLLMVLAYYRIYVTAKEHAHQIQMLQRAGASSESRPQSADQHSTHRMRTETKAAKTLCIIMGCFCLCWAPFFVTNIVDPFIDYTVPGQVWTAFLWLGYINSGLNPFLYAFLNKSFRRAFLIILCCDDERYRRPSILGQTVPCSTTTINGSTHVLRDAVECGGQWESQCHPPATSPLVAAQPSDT

As for `Cn1c(=O)c2c(ncn2C)n(C)c1=O` [1,3,7-Trimethyl Xanthine (Caffeine), 1,3,7-Trimethyl Xanthine], the “% Cross-Reaction AAMU-Ab” value in the data set with AAMU-Ab was 0%. Also, the “% Cross-Reaction 1X-Ab” value in the data set on 1X-Ab is given as 0%.

Regarding `Cn1c(=O)c2[nH]cnc2n(C)c1=O` [1,3-Dimethyl Xanthine (Theophylline), 1,3-Dimethyl Xanthine], the “% Cross-Reaction AAMU-Ab” value with AAMU-Ab was determined as 0%. For the same compound, the “% Cross-Reaction 1X-Ab” value with 1X-Ab came out at 0.2%.

In the case of `Cn1c(=O)[nH]c2ncn(C)c2c1=O` [1,7-Dimethyl Xanthine (Paraxanthine), 1,7-Dimethyl Xanthine], the “% Cross-Reaction AAMU-Ab” value in the data set with AAMU-Ab worked out at 0%. Further, in the data set on 1X-Ab, the “% Cross-Reaction 1X-Ab” value is 0.5%.

As for `Cn1c(=O)[nH]c2[nH]c(=O)n(C)c2c1=O` [1,7-Dimethyluric acid], the “% Cross-Reaction AAMU-Ab” value in the data set with AAMU-Ab worked out at 0%. Also, the “% Cross-Reaction 1X-Ab” value with 1X-Ab is recorded as 0%.

Consider `Cn1c(=O)[nH]c2nc[nH]c2c1=O` [1-Methyl Xanthine (1X), 1-Methyl Xanthine], for which the “% Cross-Reaction AAMU-Ab” value with AAMU-Ab is recorded as 0%. Moreover, the “% Cross-Reaction 1X-Ab” value in the data set on 1X-Ab was 100%.

Turning to `Cn1c(=O)[nH]c2[nH]c(=O)[nH]c2c1=O` [1-Methyluric acid], the “% Cross-Reaction AAMU-Ab” value in the data set on AAMU-Ab is 0%. For the same compound, in the data set with 1X-Ab, the “% Cross-Reaction 1X-Ab” value is listed as 11%.

As for `Cn1cnc2c1c(=O)[nH]c(=O)n2C` [3,7-Dimethyl Xanthine (Theobromine), 3,7-Dimethyl Xanthine], the “% Cross-Reaction AAMU-Ab” value with AAMU-Ab was found to be 0%. Further, the “% Cross-Reaction 1X-Ab” value in the data set on 1X-Ab turned out to be 0%.

Take `Cn1c(=O)[nH]c(=O)c2[nH]cnc21` [3-Methyl Xanthine]: the “% Cross-Reaction AAMU-Ab” value with AAMU-Ab is given as 0%. Besides, in the data set with 1X-Ab, the “% Cross-Reaction 1X-Ab” value came to 0%.

In the case of `CC(=O)Nc1c(N)n(C)c(=O)n(C)c1=O` [5-Acetamino-6-amino-1,3-dimethyluracil], the “% Cross-Reaction AAMU-Ab” value in the data set on AAMU-Ab is recorded as 0%. For the same compound, the “% Cross-Reaction 1X-Ab” value in the data set with 1X-Ab is 0%.

`CC(=O)Nc1c(N)n(C)c(=O)[nH]c1=O` [5-Acetamino-6-amino-1-methyluracil]: in the data set on AAMU-Ab, the “% Cross-Reaction AAMU-Ab” value came to 100%. Further, in the data set on 1X-Ab, the “% Cross-Reaction 1X-Ab” value amounted to 0%.

In the case of `CC(=O)Nc1c(N)[nH]c(=O)[nH]c1=O` [5-Acetamino-6-amino-uracil], the “% Cross-Reaction AAMU-Ab” value in the data set on AAMU-Ab came out at 0.6%. Further, the “% Cross-Reaction 1X-Ab” value with 1X-Ab came to 0%.

On to `Cn1cnc2[nH]c(=O)[nH]c(=O)c21` [7-Methyl Xanthine], for which the “% Cross-Reaction AAMU-Ab” value with AAMU-Ab is listed as 0%. Also, the “% Cross-Reaction 1X-Ab” value in the data set with 1X-Ab is 0%.

Turning to `Cc1nc2[nH]c(=O)[nH]c(=O)c2[nH]1` [8-Methyl Xanthine], the “% Cross-Reaction AAMU-Ab” value in the data set with AAMU-Ab is listed as 0%. Also, in the data set with 1X-Ab, the “% Cross-Reaction 1X-Ab” value is given as 0%.

With `COc1cc(N)c(Cl)cc1C(=O)NC1CCN(CCCOc2ccc(F)cc2)CC1OC` (centres unmarked) [Cisapride], in data set [1] (following intravenous (IV) administration), the half-life entry is reported as “up to 20 hours”. Also, in data set [1] (in vivo), the absolute bioavailability is on record as 35-40%, the plasma clearance result is listed as “about 100 ml/min” and the volume of distribution entry is recorded as “about 180 L”. Moreover, the “unmetabolized drug accounted for in urinary and fecal recovery” value in [1] (oral administration) is reported as “less than 10%”. Also, in [2], the “binding to plasma proteins” value was 97.5-98%. Further, the “long-term control of GERD, individuals” value in data set [3] was “up to 50%”. Moreover, in [4], the “activity at serotonin-4 (5-HT4) receptor” value is reported as “receptor agonist”. Besides, the “effect on cardiac repolarization” value in [5] was “prolonged cardiac repolarization without slowing conduction”. Also, in data set [6], the “deaths among reports of heart rhythm abnormalities” value is 80; the “diarrhea, individuals affected” value is on record as “about 10%”; the “reports of heart rhythm abnormalities” value was “at least 341”.

For `Nc1nc2nc[nH]c2c(=O)[nH]1` [Guanine], in the data set on AAMU-Ab, the “% Cross-Reaction AAMU-Ab” value was found to be 0%. In addition, the “% Cross-Reaction 1X-Ab” value in the data set with 1X-Ab stood at 0%.

Take `O=c1[nH]cnc2nc[nH]c12` [Hypoxanthine]: the “% Cross-Reaction AAMU-Ab” value in the data set with AAMU-Ab is on record as 0%. In addition, in the data set with 1X-Ab, the “% Cross-Reaction 1X-Ab” value amounted to 0%.

As for `O=c1cc[nH]c(=O)[nH]1` [Uracil], in the data set with AAMU-Ab, the “% Cross-Reaction AAMU-Ab” value is on record as 0%. Moreover, the “% Cross-Reaction 1X-Ab” value in the data set on 1X-Ab was found to be 0%.

As for `O=c1[nH]c(=O)c2[nH]c(=O)[nH]c2[nH]1` [Uric acid], the “% Cross-Reaction AAMU-Ab” value in the data set on AAMU-Ab came out at 0%. Also, the “% Cross-Reaction 1X-Ab” value in the data set with 1X-Ab is 0%.

As for `O=c1[nH]c(=O)c2[nH]cnc2[nH]1` [Xanthine], the “% Cross-Reaction AAMU-Ab” value in the data set with AAMU-Ab is 0^a %. Also, the “% Cross-Reaction 1X-Ab” value in the data set with 1X-Ab turned out to be 0%.

On to `Nc1ccc(S(=O)(=O)c2ccc(N)cc2)cc1` [dapsone], for which the adverse reactions is 17% in [7] (fast acetylators) and 46% in data set [7] (slow acetylators).
